Laboratory results as given in patent US20180000085A1, “USE OF PICOLINAMIDE COMPOUNDS WITH FUNGICIDAL ACTIVITY” (DOW AGROSCIENCES LLC, priority 2014, published 2018).

Legend:
Puccinia triticina = test: Wheat brown rust (PUCCRT) disease control on wheat seedlings; assay type: in vivo; set-up: key to PUCCRT 3DC, HV activity at 100 ppm (% control rating) / PUCCRT disease control, 3DC / PUCCRT 1DP disease control rating, HV activity / PUCCRT 3DC disease control rating, HV activity / PUCCRT 3DC, LV activity at 125.1 g/H (% Control rating) / PUCCRT 1DP, LV activity at 125.1 g/H (% Control rating) / PUCCRT 3DC disease control rating, LV activity at 125.1 g/H / PUCCRT 1DP disease control rating, LV activity at 125.1 g/H / PUCCRT 3DC disease control rating, HV activity at 100 ppm / PUCCRT 1DP disease control rating, HV activity at 100 ppm / HV activity at 100 ppm PUCCRT 3DC (disease control rating) / LV activity at 125.1 g/H PUCCRT 1DP (disease control rating) / LV activity at 125.1 g/H PUCCRT 3DC (disease control rating): A: > 80; B: ≤ 80; C: Not Tested; D: No Activity Observed in the Reported Assay; conditions: HV application at 100 ppm, wheat brown rust; for PUCCRT 1DP disease control rating, HV activity: 1 Day Protectant; for PUCCRT 3DC disease control rating, HV activity: 3 Day Curative
Zymoseptoria tritici = test: Leaf blotch of wheat (SEPTTR) disease control on wheat seedlings; assay type: in vivo; set-up: key to SEPTTR 1DP, HV activity at 100 ppm (% control rating) / SEPTTR 3DC, HV activity at 100 ppm (% control rating) / SEPTTR disease control, 1DP / SEPTTR disease control, 3DC / SEPTTR 1DP disease control rating, HV activity / SEPTTR 3DC disease control rating, HV activity / SEPTTR 3DC, LV activity at 125.1 g/H (% Control rating) / SEPTTR 1DP, LV activity at 125.1 g/H (% Control rating) / SEPTTR 1DP disease control rating, LV activity at 125.1 g/H / SEPTTR 3DC disease control rating, LV activity at 125.1 g/H / SEPTTR 3DC disease control rating, HV activity at 100 ppm / SEPTTR 1DP disease control rating, HV activity at 100 ppm / HV activity at 100 ppm SEPTTR 3DC (disease control rating) / HV activity at 100 ppm SEPTTR 1DP (disease control rating) / LV activity at 125.1 g/H SEPTTR 1DP (disease control rating) / LV activity at 125.1 g/H SEPTTR 3DC (disease control rating): A: > 80; B: ≤ 80; C: Not Tested; D: No Activity Observed in the Reported Assay; conditions: HV application at 100 ppm, wheat leaf blotch; for SEPTTR 1DP disease control rating, HV activity: 1 Day Protectant; for SEPTTR 3DC disease control rating, HV activity: 3 Day Curative

Row | Compound | PUCCRT 1DP disease control rating, HV activity (Puccinia triticina) | PUCCRT 3DC disease control rating, HV activity (Puccinia triticina) | SEPTTR 1DP disease control rating, HV activity (Zymoseptoria tritici) | SEPTTR 3DC disease control rating, HV activity (Zymoseptoria tritici)
1 | CCC(CC)[C@@H](Oc1cccc(Cl)c1)[C@H](C)OC(=O)[C@@H](NC(=O)c1nccc(OC)c1O)C(C)C [Cmpd 406] | B (≤ 80) | B (≤ 80) | B (≤ 80) | B (≤ 80)
2 | CCC(CC)[C@@H](Oc1ccc(Cl)cc1)[C@H](C)OC(=O)[C@@H](NC(=O)c1nccc(OC)c1O)C(C)C [Cmpd 407] | B (≤ 80) | B (≤ 80) | B (≤ 80) | D
3 | CCC(CC)[C@@H](Oc1ccc(Cl)cc1Cl)[C@H](C)OC(=O)[C@@H](NC(=O)c1nccc(OC)c1O)C(C)C [Cmpd 408] | B (≤ 80) | D | B (≤ 80) | D
4 | CCC(CC)[C@@H](Oc1cc(F)ccc1F)[C@H](C)OC(=O)[C@@H](NC(=O)c1nccc(OC)c1O)C(C)C [Cmpd 409] | B (≤ 80) | B (≤ 80) | D | D
5 | CCC(CC)[C@@H](Oc1cc(F)cc(Cl)c1)[C@H](C)OC(=O)[C@@H](NC(=O)c1nccc(OC)c1O)C(C)C [Cmpd 410] | A (> 80) | B (≤ 80) | B (≤ 80) | B (≤ 80)
6 | CCC(CC)[C@@H](Oc1ccccc1Cl)[C@H](C)OC(=O)[C@@H](NC(=O)c1nccc(OC)c1O)C(C)C [Cmpd 411] | A (> 80) | D | B (≤ 80) | B (≤ 80)
7 | CCC(CC)[C@@H](Oc1ccc(C(F)(F)F)cc1)[C@H](C)OC(=O)[C@@H](NC(=O)c1nccc(OC)c1O)C(C)C [Cmpd 412] | B (≤ 80) | D | B (≤ 80) | B (≤ 80)
8 | CCC(CC)[C@@H](Oc1cccc(-c2ccccc2)c1)[C@H](C)OC(=O)[C@@H](NC(=O)c1nccc(OC)c1O)C(C)C [Cmpd 413] | B (≤ 80) | D | B (≤ 80) | D
9 | CCC(CC)[C@@H](Oc1ccc(-c2ccccc2)cc1)[C@H](C)OC(=O)[C@@H](NC(=O)c1nccc(OC)c1O)C(C)C [Cmpd 414] | B (≤ 80) | B (≤ 80) | A (> 80) | B (≤ 80)
10 | C=C[C@H](C)[C@@H](Oc1ccccc1)[C@H](C)OC(=O)[C@H](C)NC(=O)c1nccc(OC)c1O [Cmpd 415] | A (> 80) | A (> 80) | A (> 80) | A (> 80)
11 | CCCOC(CC)C(Oc1ccccc1)C(C)OC(=O)C1(NC(=O)c2nccc(OC)c2O)CC1 (stereo not shown) [Cmpd 416] | B (≤ 80) | D | B (≤ 80) | D
12 | CCCOC(CC)C(Oc1ccccc1)C(C)OC(=O)C(C)(C)NC(=O)c1nccc(OC)c1O (stereo not shown) [Cmpd 417] | D | D | D | B (≤ 80)
13 | CCOc1ccnc(C(=O)N[C@@H](C)C(=O)O[C@@H](C)[C@H](Oc2ccccc2)C(C)C)c1O [Cmpd 418] | B (≤ 80) | A (> 80) | B (≤ 80) | D
14 | CCC(CC)[C@H](Oc1cccc(F)c1)[C@H](C)OC(=O)[C@H](C)NC(=O)c1nccc(OC)c1O [Cmpd 419] | A (> 80) | D | B (≤ 80) | B (≤ 80)
15 | CCC(CC)[C@H](Oc1ccc(Cl)cc1)[C@H](C)OC(=O)[C@H](C)NC(=O)c1nccc(OC)c1O [Cmpd 420] | B (≤ 80) | B (≤ 80) | A (> 80) | B (≤ 80)
16 | CCC(CC)[C@H](Oc1ccc(Cl)cc1Cl)[C@H](C)OC(=O)[C@H](C)NC(=O)c1nccc(OC)c1O [Cmpd 421] | B (≤ 80) | D | B (≤ 80) | D
17 | CCC(CC)C(Oc1cc(F)ccc1F)C(C)OC(=O)C(C)NC(=O)c1nccc(OC)c1O (stereo not shown) [Cmpd 422] | A (> 80) | B (≤ 80) | A (> 80) | B (≤ 80)
18 | CCC(CC)C(Oc1cc(F)cc(Cl)c1)C(C)OC(=O)C(C)NC(=O)c1nccc(OC)c1O (stereo not shown) [Cmpd 423] | A (> 80) | B (≤ 80) | A (> 80) | A (> 80)
19 | CC(NC(=O)c1ncccc1O)C(=O)OC(C)C(Oc1ccccc1)C(C)C (stereo not shown) [Cmpd 424] | A (> 80) | A (> 80) | A (> 80) | A (> 80)
20 | CC(NC(=O)c1nccc(Cl)c1O)C(=O)OC(C)C(Oc1ccccc1)C(C)C (stereo not shown) [Cmpd 425] | B (≤ 80) | D | D | D
21 | CCC(CC)C(Oc1cccc(F)c1)C(C)OC(=O)C(CC(C)C)NC(=O)c1nccc(OC)c1O (stereo not shown) [Cmpd 426] | B (≤ 80) | D | D | D
22 | CCC(CC)C(Oc1ccc(Cl)cc1)C(C)OC(=O)C(CC(C)C)NC(=O)c1nccc(OC)c1O (stereo not shown) [Cmpd 427] | B (≤ 80) | D | D | D
23 | CCC(CC)C(Oc1cc(F)ccc1F)C(C)OC(=O)C(CC(C)C)NC(=O)c1nccc(OC)c1O (stereo not shown) [Cmpd 428] | B (≤ 80) | D | D | D
24 | CCC(CC)C(Oc1cc(F)cc(Cl)c1)C(C)OC(=O)C(CC(C)C)NC(=O)c1nccc(OC)c1O (stereo not shown) [Cmpd 429] | B (≤ 80) | D | B (≤ 80) | D
25 | CCC(CC)C(Oc1ccc(Cl)cc1Cl)C(C)OC(=O)C(CC(C)C)NC(=O)c1nccc(OC)c1O (stereo not shown) [Cmpd 430] | B (≤ 80) | D | D | D
26 | COc1ccnc(C(=O)NC(C)C(=O)OC(C)C(OC(=O)c2ccccc2)C(C)C)c1O (stereo not shown) [Cmpd 431] | A (> 80) | D | D | D
27 | COc1ccnc(C(=O)NC(C)C(=O)OC(C)C(Oc2cccc(Cl)c2)C(C)C)c1O (stereo not shown) [Cmpd 432] | A (> 80) | B (≤ 80) | A (> 80) | D
28 | COc1ccnc(C(=O)NC(C)C(=O)OC(C)C(Oc2cccc(C(F)(F)F)c2)C(C)C)c1O (stereo not shown) [Cmpd 433] | A (> 80) | A (> 80) | D | D
